We go through 25 molecules from US9346798B2, “Dihydrobenzoxazine and tetrahydroquinoxaline sodium channel inhibitors” (AMGEN INC., priority 2012, dated 2016).

Each structure is given as a SMILES string.

What all share (assay type): cell-based
Series [1] addresses T1, Nav 1.7 (Homo sapiens (Human), UniProt Q15858). Description: Nav 1.7 in vitro assay, IonWorks Quattro (IWQ) population patch-clamp. Particulars: HEK 293 cells stably transfected with Nav 1.7; 26th pulse to -20 mV.
For series [2], the target named is T1, Nav 1.7. Put plainly: Nav 1.7 in vitro PX assay, PatchXpress whole cell voltage clamp. Particulars: HEK 293 cells stably transfected with human Nav1.7; for IC50: partially inactivated state (20 to 50% inactivation). Put shortly:
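Partially inactivated channels (20–50% inactivation at holding potential) were probed on automated patch clamp in stably transfected HEK293 cells, stepping to −10 mV for 20 msec every 10 s (0.1 Hz).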

The next series addresses Nav 1.5 (Homo sapiens (Human), UniProt Q14524). Description: Nav 1.5 in vitro assay, IonWorks Quattro (IWQ) population patch-clamp. Particulars: HEK 293 cells stably transfected with Nav 1.5; 26th pulse to -20 mV.

T1 sequence (Q15858 whole entry): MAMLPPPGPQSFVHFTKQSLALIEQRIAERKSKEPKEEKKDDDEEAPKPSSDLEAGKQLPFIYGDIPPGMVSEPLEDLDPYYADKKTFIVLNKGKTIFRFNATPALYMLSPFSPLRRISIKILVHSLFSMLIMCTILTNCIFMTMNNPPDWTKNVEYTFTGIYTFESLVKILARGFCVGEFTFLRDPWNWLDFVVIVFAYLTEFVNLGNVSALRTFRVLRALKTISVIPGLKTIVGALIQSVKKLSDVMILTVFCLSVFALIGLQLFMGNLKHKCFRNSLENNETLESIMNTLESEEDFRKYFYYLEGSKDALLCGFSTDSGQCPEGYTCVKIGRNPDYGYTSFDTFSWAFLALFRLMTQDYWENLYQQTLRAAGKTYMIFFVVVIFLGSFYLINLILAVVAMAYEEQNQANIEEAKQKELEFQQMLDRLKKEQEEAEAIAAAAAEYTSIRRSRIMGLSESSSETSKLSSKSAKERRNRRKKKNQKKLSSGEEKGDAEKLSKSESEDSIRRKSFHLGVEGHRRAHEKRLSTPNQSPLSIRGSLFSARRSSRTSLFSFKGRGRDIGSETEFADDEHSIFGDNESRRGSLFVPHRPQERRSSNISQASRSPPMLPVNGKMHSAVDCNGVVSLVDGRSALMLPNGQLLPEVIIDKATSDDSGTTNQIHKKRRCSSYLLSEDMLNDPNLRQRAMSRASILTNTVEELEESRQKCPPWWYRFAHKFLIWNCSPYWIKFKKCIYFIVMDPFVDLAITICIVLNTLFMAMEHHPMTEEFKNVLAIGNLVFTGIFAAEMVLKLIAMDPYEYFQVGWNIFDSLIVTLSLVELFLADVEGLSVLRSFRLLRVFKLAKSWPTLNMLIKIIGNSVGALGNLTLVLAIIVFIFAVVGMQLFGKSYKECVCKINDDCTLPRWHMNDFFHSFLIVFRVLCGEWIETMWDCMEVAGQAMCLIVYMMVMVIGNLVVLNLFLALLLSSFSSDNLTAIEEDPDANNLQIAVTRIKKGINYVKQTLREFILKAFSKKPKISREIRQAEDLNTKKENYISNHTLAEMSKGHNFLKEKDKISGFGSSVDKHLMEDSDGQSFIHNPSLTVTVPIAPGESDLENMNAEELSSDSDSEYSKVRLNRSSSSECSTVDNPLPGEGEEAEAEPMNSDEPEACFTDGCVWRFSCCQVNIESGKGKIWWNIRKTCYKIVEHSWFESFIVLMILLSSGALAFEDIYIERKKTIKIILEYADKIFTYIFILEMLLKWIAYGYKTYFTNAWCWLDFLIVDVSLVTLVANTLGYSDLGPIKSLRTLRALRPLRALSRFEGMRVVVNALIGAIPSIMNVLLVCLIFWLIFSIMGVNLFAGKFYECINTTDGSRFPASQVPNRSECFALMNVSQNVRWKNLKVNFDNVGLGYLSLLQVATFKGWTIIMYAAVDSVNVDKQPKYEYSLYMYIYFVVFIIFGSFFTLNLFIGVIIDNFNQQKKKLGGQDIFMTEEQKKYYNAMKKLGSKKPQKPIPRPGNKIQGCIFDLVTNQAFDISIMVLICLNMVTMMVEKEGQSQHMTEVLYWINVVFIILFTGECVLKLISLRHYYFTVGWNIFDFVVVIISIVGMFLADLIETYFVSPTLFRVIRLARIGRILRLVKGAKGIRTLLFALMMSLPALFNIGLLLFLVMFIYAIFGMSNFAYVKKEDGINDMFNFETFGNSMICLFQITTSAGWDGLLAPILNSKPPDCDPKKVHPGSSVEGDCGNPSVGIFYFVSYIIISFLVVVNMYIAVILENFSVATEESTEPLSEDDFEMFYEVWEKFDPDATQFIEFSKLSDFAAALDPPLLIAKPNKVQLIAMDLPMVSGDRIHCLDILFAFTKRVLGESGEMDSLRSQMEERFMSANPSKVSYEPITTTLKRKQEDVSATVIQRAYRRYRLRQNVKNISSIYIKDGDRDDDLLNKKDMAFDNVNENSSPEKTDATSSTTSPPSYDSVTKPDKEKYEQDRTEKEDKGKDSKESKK
Sequence of Nav 1.5 (Q14524 whole entry): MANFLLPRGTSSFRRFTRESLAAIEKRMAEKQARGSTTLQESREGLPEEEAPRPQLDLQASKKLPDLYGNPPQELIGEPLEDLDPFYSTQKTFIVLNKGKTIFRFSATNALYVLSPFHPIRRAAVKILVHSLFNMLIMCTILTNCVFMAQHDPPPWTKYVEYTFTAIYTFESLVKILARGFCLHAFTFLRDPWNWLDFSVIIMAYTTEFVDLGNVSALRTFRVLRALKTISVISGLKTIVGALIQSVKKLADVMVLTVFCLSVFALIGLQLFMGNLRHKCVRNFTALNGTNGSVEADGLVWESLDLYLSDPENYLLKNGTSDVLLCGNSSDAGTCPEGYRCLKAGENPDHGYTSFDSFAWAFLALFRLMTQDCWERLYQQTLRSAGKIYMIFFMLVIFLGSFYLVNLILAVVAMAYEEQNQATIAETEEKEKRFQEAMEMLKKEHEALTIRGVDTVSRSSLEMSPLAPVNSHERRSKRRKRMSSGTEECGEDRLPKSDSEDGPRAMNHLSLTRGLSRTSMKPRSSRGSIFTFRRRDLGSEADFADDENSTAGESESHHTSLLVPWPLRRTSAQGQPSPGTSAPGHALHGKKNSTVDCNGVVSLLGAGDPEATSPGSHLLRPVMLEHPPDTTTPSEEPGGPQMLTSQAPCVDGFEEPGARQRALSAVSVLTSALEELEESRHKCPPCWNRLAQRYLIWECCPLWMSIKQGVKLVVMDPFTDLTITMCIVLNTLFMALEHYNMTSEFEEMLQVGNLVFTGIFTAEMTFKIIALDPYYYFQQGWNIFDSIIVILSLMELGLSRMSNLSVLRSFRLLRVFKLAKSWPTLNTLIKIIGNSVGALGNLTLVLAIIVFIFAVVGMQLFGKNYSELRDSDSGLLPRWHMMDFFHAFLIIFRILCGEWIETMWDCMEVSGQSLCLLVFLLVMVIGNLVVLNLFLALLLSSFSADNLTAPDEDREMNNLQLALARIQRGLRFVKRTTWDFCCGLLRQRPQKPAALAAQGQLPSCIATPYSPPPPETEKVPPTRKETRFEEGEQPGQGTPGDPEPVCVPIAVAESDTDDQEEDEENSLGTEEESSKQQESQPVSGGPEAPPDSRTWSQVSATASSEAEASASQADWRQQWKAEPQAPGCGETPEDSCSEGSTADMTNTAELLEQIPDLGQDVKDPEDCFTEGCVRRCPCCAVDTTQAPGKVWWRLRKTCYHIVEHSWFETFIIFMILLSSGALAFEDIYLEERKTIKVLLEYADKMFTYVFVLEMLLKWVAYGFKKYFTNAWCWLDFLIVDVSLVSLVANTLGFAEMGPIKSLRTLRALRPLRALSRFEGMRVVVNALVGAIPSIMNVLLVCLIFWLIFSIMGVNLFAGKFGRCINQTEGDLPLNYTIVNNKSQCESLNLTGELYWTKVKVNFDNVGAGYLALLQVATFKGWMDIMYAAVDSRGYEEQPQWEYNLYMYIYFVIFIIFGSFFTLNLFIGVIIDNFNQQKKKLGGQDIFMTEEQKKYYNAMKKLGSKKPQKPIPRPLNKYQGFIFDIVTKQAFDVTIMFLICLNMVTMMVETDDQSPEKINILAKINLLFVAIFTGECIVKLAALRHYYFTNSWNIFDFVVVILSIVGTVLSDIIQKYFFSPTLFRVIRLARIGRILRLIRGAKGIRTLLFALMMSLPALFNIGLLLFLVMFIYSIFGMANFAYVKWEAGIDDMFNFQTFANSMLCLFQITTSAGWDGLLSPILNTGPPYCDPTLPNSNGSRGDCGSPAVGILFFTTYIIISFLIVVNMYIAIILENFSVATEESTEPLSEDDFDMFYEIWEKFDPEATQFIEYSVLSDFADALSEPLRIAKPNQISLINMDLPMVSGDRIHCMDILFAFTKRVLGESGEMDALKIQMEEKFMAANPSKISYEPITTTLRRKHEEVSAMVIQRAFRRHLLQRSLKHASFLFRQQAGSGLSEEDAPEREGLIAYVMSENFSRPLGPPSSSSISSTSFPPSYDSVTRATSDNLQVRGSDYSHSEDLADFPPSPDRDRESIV

A word on the IC50: it is the concentration needed to halve the response being measured. A high value points to weaker potency in that assay. In the case of `Cc1cc(N2CCOc3cc(S(=O)(=O)Nc4nccs4)ccc32)ccc1F` [Example 81, 4-(4-Fluoro-3-Methylphenyl)-N-(Thiazol-2-Yl)-3,4-Dihydro-2H-Benzo[B][1,4]Oxazine-7-Sulfonamide 2,2,2-Trifluoroacetate], the concentration for half-maximal inhibition (IC50) is 288 nM at Nav 1.7 [1], 1650 nM against Nav 1.7 [2] and > 10000 nM against Nav 1.5.

As to `O=S(=O)(Nc1nccs1)c1ccc2c(c1)OCCN2c1ccc(F)c(F)c1` [Example 84, 4-(3,4-Difluorophenyl)-N-(Thiazol-2-Yl)-3,4-Dihydro-2H-Benzo[B][1,4]Oxazine-7-Sulfonamide 2,2,2-Trifluoroacetate], the figures for the IC50 against Nav 1.7 [1], against Nav 1.7 [2] and against Nav 1.5 were 326 nM, 3040 nM and 3810 nM, respectively.

For the molecule `O=S(=O)(Nc1ncccn1)c1ccc2c(c1)OCCN2c1ccc(C(F)(F)F)cc1C1=CCNCC1` [Example 86, N-(Pyrimidin-2-Yl)-4-(2-(1,2,3,6-Tetrahydropyridin-4-Yl)-4-(Trifluoromethyl)Phenyl)-3,4-Dihydro-2H-Benzo[B][1,4]Oxazine-7-Sulfonamide], the values for the IC50 on Nav 1.7 [1], against Nav 1.7 [2] and on Nav 1.5 were 320 nM, 851 nM and 2260 nM, respectively.

As for `O=S(=O)(Nc1cccnn1)c1ccc2c(c1)OCCN2c1ccc(C(F)(F)F)cc1C1=CCNCC1` [Example 87, N-(Pyridazin-3-Yl)-4-(2-(1,2,3,6-Tetrahydropyridin-4-Yl)-4-(Trifluoromethyl)Phenyl)-3,4-Dihydro-2H-Benzo[B][1,4]Oxazine-7-Sulfonamide], the 50% inhibitory concentration (IC50) on Nav 1.7 [1] was 26 nM; against Nav 1.7 [2], 381 nM; against Nav 1.5, > 10000 nM.

Turning to `O=S(=O)(Nc1cnccn1)c1ccc2c(c1)OCCN2c1ccc(C(F)(F)F)cc1C1=CCNCC1` [Example 88, N-(Pyrazin-2-Yl)-4-(2-(1,2,3,6-Tetrahydropyridin-4-Yl)-4-(Trifluoromethyl)Phenyl)-3,4-Dihydro-2H-Benzo[B][1,4]Oxazine-7-Sulfonamide], the IC50 against Nav 1.7 [1] was 224 nM; on Nav 1.7 [2] it was 737 nM; against Nav 1.5, > 10000 nM.

As to `N#Cc1cc(C(F)(F)F)ccc1N1CCOc2cc(S(=O)(=O)Nc3ccncn3)ccc21` [Example 89, 4-(2-Cyano-4-(Trifluoromethyl)Phenyl)-N-(Pyrimidin-4-Yl)-3,4-Dihydro-2H-Benzo[B][1,4]Oxazine-7-Sulfonamide], the results for the IC50 at Nav 1.7 [1], on Nav 1.7 [2] and on Nav 1.5 were 28.5 nM, 464 nM and 1140 nM, respectively.

Take `N#Cc1cc(C(F)(F)F)ccc1N1CCOc2cc(S(=O)(=O)Nc3ncco3)ccc21` [Example 90, 4-(2-Cyano-4-(Trifluoromethyl)Phenyl)-N-(Oxazol-2-Yl)-3,4-Dihydro-2H-Benzo[B][1,4]Oxazine-7-Sulfonamide]: the IC50 against Nav 1.7 [1] is 924 nM; against Nav 1.7 [2], 2590 nM; at Nav 1.5, > 10000 nM.

For `N#Cc1cc(C(F)(F)F)ccc1N1CCOc2cc(S(=O)(=O)Nc3ccno3)ccc21` [Example 91, 4-(2-Cyano-4-(Trifluoromethyl)Phenyl)-N-(Isoxazol-5-Yl)-3,4-Dihydro-2H-Benzo[B][1,4]Oxazine-7-Sulfonamide], the results for the half-inhibitory concentration (IC50) at Nav 1.7 [1], at Nav 1.7 [2] and against Nav 1.5 were 3640 nM, 9210 nM and > 10000 nM, respectively.

As for `O=S(=O)(Nc1ccncn1)c1ccc2c(c1)OCCN2c1ncc(C(F)(F)F)cc1Cl` [Example 99, 4-(3-Chloro-5-(Trifluoromethyl)Pyridin-2-Yl)-N-(Pyrimidin-4-Yl)-3,4-Dihydro-2H-Benzo[B][1,4]Oxazine-7-Sulfonamide], the half-inhibitory concentration (IC50) at Nav 1.7 [1] was 327 nM; at Nav 1.7 [2], 4970 nM; at Nav 1.5 it was > 10000 nM.

Take `COc1ccc(C)nc1N1CCOc2cc(S(=O)(=O)Nc3nccs3)ccc21` [Example 109, 4-(3-methoxy-6-methyl-2-pyridinyl)-N-1,3-thiazol-2-yl-3,4-dihydro-2H-1,4-benzoxazine-7-sulfonamide]: the IC50 at Nav 1.7 [1] is 249 nM; at Nav 1.7 [2], 1980 nM; at Nav 1.5, > 10000 nM.

What is called inhibition is the share of the control response that was lost under treatment. In the case of `Cc1cc(F)cnc1N1CCOc2cc(S(=O)(=O)Nc3nccs3)ccc21` [Example 110, 4-(5-Fluoro-3-methylpyridin-2-yl)-N-(thiazol-2-yl)-3,4-dihydro-2H-benzo[b][1,4]oxazine-7-sulfonamide], the values for the IC50 on Nav 1.7 [1] and at Nav 1.5 were 1700 nM and > 10000 nM, respectively. In addition, the inhibition at 4.9 µM on Nav 1.7 [2] (HEK293, values marked *, 4.9 μM, read-out: Nav 1.7 PX percent inhibition at 4.9 μM) amounted to 39.2%.

Take `COc1ncc(Cl)cc1N1CCOc2cc(S(=O)(=O)Nc3nccs3)ccc21` [Example 111, 4-(5-Chloro-2-methoxypyridin-3-yl)-N-(thiazol-2-yl)-3,4-dihydro-2H-benzo[b][1,4]oxazine-7-sulfonamide]: the IC50 turned out to be 33.5 nM against Nav 1.7 [1], 1050 nM against Nav 1.7 [2] and 3030 nM at Nav 1.5.

Turning to `CC(C)c1ccc(N2CCOc3cc(S(=O)(=O)Nc4nccs4)ccc32)cc1` [Example 112, 4-(4-Isopropylphenyl)-N-(thiazol-2-yl)-3,4-dihydro-2H-benzo[b][1,4]oxazine-7-sulfonamide], the IC50 at Nav 1.7 [1] was 1660 nM; against Nav 1.7 [2], 12200 nM; on Nav 1.5, > 10000 nM.

For the molecule `O=S(=O)(Nc1nccs1)c1ccc2c(c1)OCCN2c1ccc(OCC(F)(F)F)cc1` [Example 113, N-(thiazol-2-yl)-4-(4-(2,2,2-trifluoroethoxy)phenyl)-3,4-dihydro-2H-benzo[b][1,4]oxazine-7-sulfonamide], the half-inhibitory concentration (IC50) against Nav 1.7 [1] is 891 nM; against Nav 1.7 [2], 2720 nM; against Nav 1.5 it was 3370 nM.

For `COc1ccc(C(F)(F)F)cc1N1CCOc2cc(S(=O)(=O)Nc3nccs3)ccc21` [Example 114, 4-(2-Methoxy-5-(trifluoromethyl)phenyl)-N-(thiazol-2-yl)-3,4-dihydro-2H-benzo[b][1,4]oxazine-7-sulfonamide], the 50% inhibitory concentration (IC50) on Nav 1.7 [1] worked out at 40.5 nM; on Nav 1.7 [2] it was 278 nM; against Nav 1.5, 5060 nM.

For the molecule `Cc1ccc(N2CCOc3cc(S(=O)(=O)Nc4nccs4)ccc32)cc1C#N` [Example 115, 4-(3-Cyano-4-methylphenyl)-N-(thiazol-2-yl)-3,4-dihydro-2H-benzo[b][1,4]oxazine-7-sulfonamide], the 50% inhibitory concentration (IC50) was 1280 nM against Nav 1.7 [1], 5570 nM against Nav 1.7 [2] and 7730 nM on Nav 1.5.

For the molecule `Cc1cc(N2CCOc3cc(S(=O)(=O)Nc4nccs4)ccc32)ccc1C#N` [Example 116, 4-(4-Cyano-3-methylphenyl)-N-(thiazol-2-yl)-3,4-dihydro-2H-benzo[b][1,4]oxazine-7-sulfonamide], the half-maximal inhibitory concentration (IC50) is 841 nM at Nav 1.7 [1], 4950 nM at Nav 1.7 [2] and 7360 nM against Nav 1.5.

On to `COc1ccc(N2CCOc3cc(S(=O)(=O)Nc4nccs4)ccc32)cc1C#N` [Example 118, 4-(3-Cyano-4-methoxyphenyl)-N-(thiazol-2-yl)-3,4-dihydro-2H-benzo[b][1,4]oxazine-7-sulfonamide], for which the IC50 is 660 nM at Nav 1.7 [1], 18100 nM against Nav 1.7 [2] and > 10000 nM at Nav 1.5.

As for `COc1ccc(N2CCOc3cc(S(=O)(=O)Nc4nccs4)ccc32)c(OC)c1` [Example 120, 4-(2,4-Dimethoxyphenyl)-N-(thiazol-2-yl)-3,4-dihydro-2H-benzo[b][1,4]oxazine-7-sulfonamide], the values for the IC50 on Nav 1.7 [1], at Nav 1.7 [2] and against Nav 1.5 were 796 nM, 2240 nM and > 10000 nM, respectively.

In the case of `O=S(=O)(Nc1nccs1)c1ccc2c(c1)OCCN2c1ccc(C(F)(F)F)nc1` [Example 122, N-(thiazol-2-yl)-4-(6-(trifluoromethyl)pyridin-3-yl)-3,4-dihydro-2H-benzo[b][1,4]oxazine-7-sulfonamide], the IC50 was 615 nM against Nav 1.7 [1], 2900 nM at Nav 1.7 [2] and 7030 nM on Nav 1.5.

`O=S(=O)(Nc1nccs1)c1ccc2c(c1)OCCN2c1ccc(OC(F)(F)C(F)F)cc1` [Example 123, 4-(4-(1,1,2,2-Tetrafluoroethoxy)phenyl)-N-(thiazol-2-yl)-3,4-dihydro-2H-benzo[b][1,4]oxazine-7-sulfonamide]: the IC50 on Nav 1.7 [1] was found to be 1070 nM; on Nav 1.7 [2], 4720 nM; against Nav 1.5 it was 5810 nM.

As to `Cc1cc(C#N)cc(N2CCOc3cc(S(=O)(=O)Nc4nccs4)ccc32)c1` [Example 124, 4-(3-Cyano-5-methylphenyl)-N-(thiazol-2-yl)-3,4-dihydro-2H-benzo[b][1,4]oxazine-7-sulfonamide], the IC50 is 160 nM against Nav 1.7 [1], 2690 nM against Nav 1.7 [2] and 2330 nM against Nav 1.5.

For `O=S(=O)(Nc1nccs1)c1ccc2c(c1)OCCN2c1ccc(Cl)c(C(F)(F)F)c1` [Example 125, 4-(4-Chloro-3-(trifluoromethyl)phenyl)-N-(thiazol-2-yl)-3,4-dihydro-2H-benzo[b][1,4]oxazine-7-sulfonamide], the IC50 against Nav 1.7 [1] was 571 nM; on Nav 1.7 [2], 4040 nM; at Nav 1.5 it was 6550 nM.

Consider `O=S(=O)(Nc1nccs1)c1ccc2c(c1)OCCN2c1ccc(C(F)(F)F)c(Cl)c1` [Example 126, 4-(3-Chloro-4-(trifluoromethyl)phenyl)-N-(thiazol-2-yl)-3,4-dihydro-2H-benzo[b][1,4]oxazine-7-sulfonamide], for which the results for the IC50 at Nav 1.7 [1], at Nav 1.7 [2] and at Nav 1.5 were 1240 nM, 14200 nM and > 10000 nM, respectively.

In the case of `O=S(=O)(Nc1nccs1)c1ccc2c(c1)OCCN2c1ccc2c(c1)OC(F)(F)O2` [Example 127, 4-(2,2-Difluorobenzo[d][1,3]dioxol-5-yl)-N-(thiazol-2-yl)-3,4-dihydro-2H-benzo[b][1,4]oxazine-7-sulfonamide], the IC50 at Nav 1.7 [1] was 475 nM; against Nav 1.7 [2] it was 1320 nM; against Nav 1.5 it was > 10000 nM.
